Source: patent US5834462A, “Tricyclic heterocyclic sulfonamide and sulfonic ester derivatives” (Eisai Co., Ltd., priority 1993, dated 1998)
In brackets after ≈: the same amount, converted by molar mass.

What follows are molecules tested on KB cells (human nasopharyngeal cancer cells) (assay: in vitro Antitumor test on KB cells (MTT)). Conditions: 72 h, 3 days incubation.
Type: cell-based
Description: in vitro Antitumor test on KB cells (human nasopharyngeal cancer cells)
KB cells suspended in an RPMI1640 medium (mfd. by Nissui Seiyaku K. K.), which contained 10% of fetal calf serum, 100 U/mi of penicillin, 100 μg/ml of streptomycin, 5×10^-5 M of mercaptoethanol and 1 mM of sodium pyruvate, were inoculated in 1.25×10^3 portions (0.1 ml) into wells of a 96-well flat-bottomed microplate and then incubated in an incubator containing 5% of carbon dioxide at 37° C. for a day.
A compound of the present invention was dissolved in dimethyl sulfoxide in a concentration of 20 mg/ml and diluted with a 10% fetal calf serum-RPMI1640 culture medium to a concentration of 100 μg/ml. By using this concentration as the highest level, threefold serial dilution was performed with a 10% fetal calf serum-RPMI1640 culture medium. Then it was added in 0.1 ml portions into the wells of the above-mentioned plate wherein the KB cells had been incubated followed by incubation in the incubator containing 5% of carbon dioxide at 37° C. for 3 days.
After incubating, an MTT (3-(4,5-dimethylthiazol-2-yl)-2,5-diphenyltetrazolium bromide) solution (3.3 mg/ml) was added in 0.05 ml portions into the wells and the incubation was effected for additional 1 hour. After sucking off the supernatant from each well, the formazane thus formed was dissolved in 0.1 ml of dimethyl sulfoxide. Then the absorbance at 540 nm was measured with a microplate reader and employed as an indication of the vital cell count. In accordance with the following equation, the inhibitory ratio was calculated and the 50% inhibitory concentration (IC50) of the test compound was determined. [formula] T: absorbance of a well containing the test commpound. C: absorbance of a well containing no test compound.

IC50 | SMILES
0.15 µg/mL (≈ 0.376 µM) | COc1ccc(S(=O)(=O)Nc2cccc3c2Nc2ccccc2CS3)cc1 [Example 26, N-(5,11-Dihydrobenzo(b,e)(1,4)thiazepin-6-yl)-4-metboxybenzenesulfonamide]
0.08 µg/mL (≈ 0.217 µM) | COc1ccc(S(=O)(=O)Nc2cccc3c2Nc2ccccc2O3)cc1 [Example 5, 4-Methoxy-N-(10H-phenoxazin-1-yl)benzenesulfonamide]
0.17 µg/mL (≈ 0.442 µM) | COc1ccc(S(=O)(=O)Nc2cccc3c2Nc2ccc(O)cc2O3)cc1 [Example 22, N-(7-Hvdroxy-10H-phenoxain-1-yl)-4-methoxybenzene-sulfonamide]
0.032 µg/mL (≈ 0.0837 µM) | COc1ccc(S(=O)(=O)Nc2cccc3c2Nc2ccccc2OC3)cc1 [Example 40, N-(5,11-Dihydrodibenz(b,e)(1,4)oxalelpin-4-yl)-4-methoxybenzenesulfonamide]
0.15 µg/mL (≈ 0.406 µM) | COc1ccc(S(=O)(=O)Nc2cccc3c2Nc2ncccc2O3)cc1 [Example 15, 4-Methoxy-N-(10H-pyrido(3,2-b)(1,4)benzoxazin-9-yl)-benzenesulfonamide]
0.043 µg/mL (≈ 0.108 µM) | COc1ccc(S(=O)(=O)Nc2cccc3c2Nc2ccc(CO)cc2O3)cc1 [Example 33, N-(7-Hydroxymethyl-10-phenoxazin-1-yl)-4-methoxy-benzenesulfonamide]
0.1 µg/mL (≈ 0.284 µM) | COc1ccc(S(=O)(=O)Nc2cccc3c2[nH]c2ccccc23)cc1 [Example 2, N-(9H-Carbazol-1-yl)-4-methoxybenzenesulfornamide]
0.022 µg/mL (≈ 0.0596 µM) | COc1ccc(S(=O)(=O)Nc2cccc3c2Nc2cccnc2O3)cc1 [Example 16, 4-Methoxy-N-(5H-pyrido(2,3-b)(1,4)benzoxazin-6-yl)-benzenesulfonamide]
0.026 µg/mL (≈ 0.0713 µM) | COc1ccc(S(=O)(=O)Nc2cccc3cc4ccccc4nc23)cc1 [Example 14, N-(4-Acridinyl)-4-methoxybenzenesulfonamide]
0.0061 µg/mL (≈ 0.016 µM) | COc1ccc(S(=O)(=O)Nc2cccc3oc4cc(=O)ccc-4nc23)cc1 [Example 24, 4-Methoxy-N-(3H-phenoxazin-3-on-9-yl)benzene-sulfonamide]
0.23 µg/mL (≈ 0.608 µM) | COc1ccc(S(=O)(=O)Nc2cccc3c2Nc2ccccc2C=C3)cc1 [Example 9, N-(5H-Dibenz[b,f]azepin-4-yl)-4-methoxybenzene-sulfonamilde]
0.25 µg/mL (≈ 0.631 µM) | COc1ccc(S(=O)(=O)Nc2cccc3c2NC(=O)c2ccccc2O3)cc1 [Example 12, N-(Dibenrz(b,f)(1,4)oxazepin-11(10H)-on-9-yl)-4-methoxybenzenelfonamide]
0.17 µg/mL (≈ 0.447 µM) | COc1ccc(S(=O)(=O)Nc2cccc3c(=O)c4ccccc4[nH]c23)cc1 [Example 4, N-(9(10H)-Acridinon-4-yl)-4-methoxyhenzenesulfonamide]
0.016 µg/mL (≈ 0.0402 µM) | COc1ccc(S(=O)(=O)Nc2cccc3sc4cc(=O)ccc-4nc23)cc1 [Example 25, 4-Methoxy-N-(3-phenothiazin-3-on-9-yl)benzene-sulfonamide]
0.09 µg/mL (≈ 0.237 µM) | COc1ccc(S(=O)(=O)Nc2cccc3c2Nc2ccccc2CC3)cc1 [Example 6, N-(10,11-Dihydro-5H-dibenz(b,f)azepin-4-yl)-4-methoxybenzenesulfonamide]
0.11 µg/mL (≈ 0.288 µM) | COc1ccc(S(=O)(=O)Nc2cccc3c2N(C)c2ccccc2O3)cc1 [Example 29, 4-Methoxy-N-(10-methyl-10H-phenoxazin-1-yl)benzene-sulfonamide]
0.11 µg/mL (≈ 0.277 µM) | COc1ccc(S(=O)(=O)Nc2cccc3c(=O)c4cc(O)ccc4[nH]c23)cc1 [Example 20, N-(7-Hydroxy-9(10H)-acridinon-4-yl)-4-methoxybenzene-sulfonamide]

Second part, the molecule before the results:

SMILES | IC50
Cc1ccc(S(=O)(=O)Nc2cccc3c2Nc2ccc(O)cc2CO3)s1 [Example 42, N-(5,11-Dihydro-2-hydroxydihenz(b,e)(1,4)oxazepin-6-yl)-5-methyl-2-thiopbhenesulfonamide] | 0.13 µg/mL (≈ 0.335 µM)
COc1ccc(S(=O)(=O)Nc2cccc3c2Nc2ccc(O)cc2CO3)cc1 [Example 30, N-(5,11-Dibydro-2-bydroxydihenz(b,e)(1,4)oxazepin-6-yl)-4-methoxybenzensulfonamide] | 0.028 µg/mL (≈ 0.0703 µM)
CCN1Cc2ccccc2Nc2c(NS(=O)(=O)c3ccc(OC)cc3)cccc21 [Example 41, N-(10,11-Dihydro-10-ethyl-5H-dihenzo(b,e)(1,4)-diazepin-6-yl)-4-meltoxybenzenesulfonamnide] | 0.28 µg/mL (≈ 0.684 µM)
Nc1ccc(S(=O)(=O)Nc2cccc3c2Nc2ccccc2S3)cc1 [Example 34, 4-Amino-N-(10-phenothiazin-1-yl)benzenesulfonamide] | 0.25 µg/mL (≈ 0.677 µM)
Cc1ccc(S(=O)(=O)Nc2cccc3c2Nc2ccc(O)cc2CO3)cc1 [Example 38, N-(5,11-Ditiydro-2-hydroxydihenz(b,e)(1,4)oxazepin-6-yl)-4-methylbenzenesulfonamide] | 0.047 µg/mL (≈ 0.123 µM)
COc1ccc(S(=O)(=O)Nc2cccc3c2Nc2ccc(C)cc2CN3)cc1 [Example 31, N-10,11-Dihydro-2-methyl-5H-dihenzn(b,e)(1,4)-diazepin-6-yl)-4-methoxyhenenesulfonamide] | 0.27 µg/mL (≈ 0.683 µM)
COc1ccc(S(=O)(=O)Nc2cccc3c2Nc2ccc(F)cc2NC3)cc1 [Example 49, N-(10,11-Dihydro-8-fluoro-5H-dibenzo(b,e)(1,4)-diazepin-4-yl)-4-methoxybenzenesulfonamide] | 0.08 µg/mL (≈ 0.2 µM)
COc1ccc(S(=O)(=O)Nc2cccc3c2Nc2cc(F)c(F)cc2S3)cc1 [Example 28, N-(7,8-Difluoro-10-pbenothiazin-1-yl)-4-methoxy-benenesulfonamide] | 0.069 µg/mL (≈ 0.164 µM)
COc1ccc(S(=O)(=O)Nc2cccc3c2Nc2ccc(C#N)cc2CN3)cc1 [Example 48, N-(2-Cyano-10,11-dihydro-5H-dibenzo(b,e)(1,4)diazepin-6-yl)-4-methoxybenzenesulfonamide] | 0.028 µg/mL (≈ 0.0689 µM)
COc1ccc(S(=O)(=O)Nc2cccc3c2Nc2cncnc2S3)cc1 [Example 35, 4-Melthoxy-N-(5H-pyrimido(4,5-b)(1,4)benzothizin-6-yl)benzenesulfonamide] | 0.25 µg/mL (≈ 0.647 µM)
COc1ccc(S(=O)(=O)Nc2cccc3c2Nc2c(Cl)cc(F)c(O)c2CN3)cc1 [Example 46, N-(4-Chloro-10,11-dihvdro-2-fluoro-1-hvdroxy-5-dibenzo(b,e)(1,4)diazepin-6-yl)-4-methoxybenzene-sulfonamide] | 0.25 µg/mL (≈ 0.556 µM)
COc1ccc(S(=O)(=O)Nc2cccc3c2Nc2ccccc2CO3)cc1 [Example 17, N-(5,11-Dihydrpdibenz(b,e)(1,4)oxazepin-6-yl)-4-methoxybenzenesulfonamide] | 0.03 µg/mL (≈ 0.0784 µM)
COc1ccc(S(=O)(=O)Nc2cccc3c2Nc2ccc(NC(C)=O)cc2CN3)cc1 [Example 43, N-(2-Acetylamino-10,11-dibydro-5H-dibhenz(b,e)(1,4)-diazepin-6-yl)-4-methoxybenzenesulfonamide] | 0.22 µg/mL (≈ 0.502 µM)
COc1ccc(S(=O)(=O)Nc2cccc3c2Nc2ccc(F)c(O)c2CN3)cc1 [Example 47, N-(10,11-Dihydro-2-fluoro-1-hydroxy-5H-dibenzo(b,e)-(1,4)diazepin-6-yl)-4-methoxybenzenesulfonamide] | 0.078 µg/mL (≈ 0.188 µM)
COc1ccc(S(=O)(=O)Nc2cc(F)cc3c2Nc2ccc(O)cc2CO3)cc1 [Example 39, N-(5,11-Dihydro-8-fluoro-2-hdroxydihenz(b,e)(1,4)-oxazepin-6-yl)-4-methoxybenrzenesilfonamide] | 0.26 µg/mL (≈ 0.624 µM)
COc1ccc(S(=O)(=O)Nc2cccc3c2Nc2ccc(F)c(O)c2CO3)cc1 [Example 45, N-(5,11-Dihydro-2-fluoro-1-hydroxydibenz(b,e)-(1,4)oxazepin-6-yl)-4-methoxybenzenesulfonamide] | 0.016 µg/mL (≈ 0.0384 µM)
COc1ccc(S(=O)(=O)Nc2cccc3c2Nc2ccccc2S3)cc1 [Example 1, 4-Methoxy-N-(10H-phenothiazin-1-yl)benenesulfonamide] | 0.11 µg/mL (≈ 0.286 µM)
COc1ccc(S(=O)(=O)Nc2cccc3c2Nc2ccc(OCCCO)cc2CN3)cc1 [Example 44, N-(10,11-Dihydro-2-(3-hydroxypropyloxy)-5H-dibenzo-(b,e)(1,4)(diazepin-6-yl)4-metbhoxybenzenesulfonamide] | 0.077 µg/mL (≈ 0.169 µM)

These molecules were tested on M5076 (mouse reticulum cell sarcoma) (assay: in vivo antitumor test on M5076 transplanted in BDF1 mice). Conditions: 50 mg/kg/day, intraperitoneal, 4 times every other day from 10th day.
Excerpt: in vivo antitumor test on M5076 (mouse reticulum cell sarcoma)
1×10^6 M5076 cells were subcutaneously transplanted into the lateral parts of BDF1 mice (aged 6 to 9 weeks, female). A compound of the present invention was suspended in physiological saline containing 3.5% of dimethyl sulfoxide and 6.5% of Tween 80 and a given amount of the obtained suspension was intraperitoneally administered to the animals 4 times from the 10th day after the transplantation once a day every other day. The control group comprised 10 to 12 animals, while the test group comprised 5 or 6 animals.
On the 21st day after the transplantation, tumors were taken out and weighed. Then the tumor multiplication inhibitory ratio of each test group based on the control group was determined in accordance with the following equation. [formula] T: average tumor weight of the test group. C: average tumor weight of the control group.

SMILES | Inhibitory ratio (tumor weight, 21st day) | Survival ratio on 21st day
COc1ccc(S(=O)(=O)Nc2cccc3c2Nc2cc(F)c(F)cc2S3)cc1 [Example 28, N-(7,8-Difluoro-10-pbenothiazin-1-yl)-4-methoxy-benenesulfonamide] | 82% | 100%
COc1ccc(S(=O)(=O)Nc2cccc3c2Nc2ccccc2S3)cc1 [Example 1, 4-Methoxy-N-(10H-phenothiazin-1-yl)benenesulfonamide] | 73% | 100%

Same assay, conditions: 100 mg/kg/day, intraperitoneal, 4 times every other day from 10th day

SMILES | Inhibitory ratio (tumor weight, 21st day) | Survival ratio on 21st day
COc1ccc(S(=O)(=O)Nc2cccc3c2Nc2ccc(O)cc2CO3)cc1 [Example 30, N-(5,11-Dibydro-2-bydroxydihenz(b,e)(1,4)oxazepin-6-yl)-4-methoxybenzensulfonamide] | 82% | 100%
COc1ccc(S(=O)(=O)Nc2cccc3c2Nc2ccccc2CO3)cc1 [Example 17, N-(5,11-Dihydrpdibenz(b,e)(1,4)oxazepin-6-yl)-4-methoxybenzenesulfonamide] | 81% | 100%
